Measured values from US11214556B1, “Method of treating colorectal cancer” (King Abdulaziz University, priority 2019, dated 2022).

Legend:
Format in all cases: cell-based, human
HCT-116 cells [1] = assay: SRB cytotoxicity assay, HCT-116; settings: SRB assay, 72 h exposure; ± SEM
Summary of the method: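 Cells in RPMI1640/10% FBS were seeded at 5000 per well and grown 24 h. They were then exposed to 0.01–100 μM compound, or 1% DMSO, for 72 h at 37 °C. After TCA fixation and SRB staining, OD was read at 510 nm and viability expressed relative to untreated controls.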

CACO-2 cells = assay: SRB cytotoxicity assay, CACO-2; settings: 72 h exposure, ± SEM
Summary of the method: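 Cells seeded at 5000/well, grown 24 h, then exposed 72 h at 37 °C to 0.01–100 μM compound or 1% DMSO in RPMI1640 with 10% FBS. TCA-fixed, SRB-stained, OD read at 510 nm; viability expressed relative to untreated control cells.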

HCT-116 cells [2] = assay: Nuclear fragmentation by DAPI staining; settings: 2.85 μM (IC50), 48 h compared to 24 h
Procedure: Several assays were performed to determine the apoptotic effect of the early lead MOS-1512 as well as the potent derivative MOS-4112 on HCT-116 cells. […] See Drutovic, D.; Chripkova, M.; Pilatova, M.; Kruzliak, P.; Perjesi, P.; Sarissky, M.; Lupi, M.; Damia, G.; Broggini, M.; Mojzis, J., Benzylidenetetralones, cyclic chalcone analogues, induce cell cycle arrest and apoptosis in HCT116 colorectal cancer cells. Tumour Biol 2014, 35 (10), 9967-75, incorporated herein by reference in its entirety.
Cells were cultured on sterile 22 mm^2 cover slips (Harvard Apparatus, MA, USA) in sterile six well plates at a density of 2×10^5 cells/well. […] The fixed and permeabilized cells nuclei were denatured with 2 N HCl (300 μl) for 10 min, washed three times more, and treated with 0.1 μg/ml 4′,6′-diamidino-2-phenylindole, dihydrochloride (DAPI) (Sigma-Aldrich, St. Louis, Mo., USA) (1:1000) in (phosphate-buffered saline-Tween 20 (PBST) for 1 hr. After staining, the cells were washed twice with PBS. The cover slips were then mounted on a glass slide with anti-fade mounting medium and viewed with an epifluorescence microscope, Leica, DM 5500 B (Leica, Buffalo Grove, Ill., USA) at a magnification of 60×, and data were captured digitally and quantified using the microscope provided software.

HCT-116 cells [3] = assay: Annexin V/propidium iodide apoptotic cell determination; settings: IC50 concentration
Procedure: Apoptosis was determined by staining cells with Annexin V-fluorescein isothiocyanate (FITC) and counterstaining with propidium iodide (PI) using the Annexin V-FITC/PI apoptosis detection kit (BD Biosciences, San Diego, Calif., USA) according to the manufacturer's instructions. Briefly, 4×10^6 cell/T 75 flask were exposed to the IC50 of tested compound for 24 and 48 h. The cells were collected by trypsinization and 0.5×10^6 cells were washed twice with phosphate-buffered saline (PBS) and stained with 5 μl Annexin V-FITC and 5 μl PI in 1× binding buffer (BD Biosciences, San Jose, Calif., USA) for 15 min at room temperature in the dark. Analyses were performed using FACS Calibur flow cytometer (BD Biosciences, San Jose, Calif., USA).

[4] = tested on: HT-29 colon cancer cell spheroids (cancer stem cells); assay: Primary (1°) colonosphere formation assay
Procedure: Compound 4112 and another potent compound 3712 were also evaluated for their ability to inhibit cancer stem cell proliferation using a primary (1°) colonosphere formation assay. In this assay, HT-29 colon cancer cells were grown in low adhesion plates to form spheres as previously described. See Patel, N. J.; Karuturi, R.; Al-Horani, R. A.; Baranwal, S.; Patel, J.; Desai, U. R.; Patel, B. B., Synthetic, non-saccharide, glycosaminoglycan mimetics selectively target colon cancer stem cells. ACS Chem Biol 2014, 9 (8), 1826-33, incorporated herein by reference in its entirety. Wells treated with the inventive compounds were compared to vehicle treated cells for primary sphere growth inhibition after 5 days of incubation. […] Of note, monolayer growth conditions are ideally suited for examining cellular proliferation, whereas spheroid growth conditions examine cancer stem cell growth and self-renewal properties.
For primary sphere formation, cells were plated in nontreated, low adhesion, 96 wells plate at the concentration of 100 cells/100 μL/well in stem cell media (SCM) that consisted of DMEM:F12:AA (Gibco), supplemented with 1×B27 (Gibco), 20 ng/mL epidermal growth factor, and 10 ng/mL fibroblast growth factor (Sigma). After 4 h of incubation, vehicle (control) or 3712 and 4112 at the desired concentrations were added to each well (at least in triplicates for each sample). On day five, numbers of spheres ranging from […] in diameter were counted using phase contrast microscope and percent inhibition was calculated compared to control.

CCCNC(=O)/C(=C/c1c[nH]c2ccccc12)NC(=O)/C=C/c1cccs1 [Compound 4112, (Z)-3-(1H-indol-3-yl)-N-propyl-2-[(E)-3-(thien-2-yl)acrylamidolacry]amide]
IC50 (HCT-116 cells [1]): 2.85 ± 1.5 µM
IC50 (CACO-2 cells): 0.89 ± 0.04 µM
percentage of cells with fragmented DNA and condensed nuclei (HCT-116 cells [2]): greatly increased
cell population in early apoptosis (HCT-116 cells [3]; after 48 hours): 17.5%
cell population in late apoptosis (HCT-116 cells [3]; after 48 hours): 4.1%
viable cells (HCT-116 cells [3]; after 48 hours): 72%
change in cell viability (HCT-116 cells [3]; at 24 hours): very little change in cell viability
IC50 ([4]; HT-29 spheres, 5 days of incubation): 18.9 ± 1.1 µM
inhibition of colon cancer spheroids formation ([4]; spheroids >50 μm, 5 days): dose-dependent inhibition
